Results: patent US9751878B2, “Tetrahydronaphthyridine somatostatin receptor 5 antagonists” (Takeda Pharmaceutical Company Limited, priority 2013, dated 2017)

What was measured:
[1] = test system: Male KK-Ay/Ta mice, a type 2 diabetes model; assay: Antidiabetic effect in mice (2); type: in vivo; settings: 0.03% food admixture with CE-2 diet for 2 weeks; n=7
Method: Antidiabetic Effect in Mice (2)
(§1) Male KK-Ay/Ta mice (Clea Japan Inc.), a type 2 diabetes model, were used in this study. At the age of 7-week old, blood samples were collected from tail vein at 8:00 am, and animals were divided into separate groups (n=7) based on glycated hemoglobin (GHb), plasma glucose, insulin, triglyceride levels and body weight. The Compound of Example 35 (0.03% (weight % of the compound in the food admixture)) was administered by food admixture with CE-2 diet (Clea Japan Inc.) for 2 weeks. After 2 weeks of treatment, GHb was determined by auto-analyzer HLC-723G8 (TOSOH, Japan).

[2] = test system: Male KK-Ay/Ta mice, a type 2 diabetes model; assay: Antidiabetic effect in mice (1); type: in vivo; settings: 10 mg/kg orally once a day for 2 weeks; n=8
Method: Antidiabetic Effect in Mice (1)
as §1, with “(n=8)” for “(n=7)”, “Vehicle (0.5% (w/v) methylcellulose) or the compound” for “The Compound”, “67 (10 mg/kg) (suspended” for “35 (0.03% (weight % of the compound”, “vehicle) were orally” for “the food admixture)) was”, “once a day” for “by food admixture with CE-2 diet (Clea Japan Inc.)”

[3] = biological target: T1, human SSTR5 (Homo sapiens, UniProt P35346); assay: Evaluation of human SSTR5 antagonist activity using intracellular cAMP concentration as index; type: cell-based; settings: 1 μM test compound; CHO (dhfr-) cells stably expressing human SSTR5; 0.1 nM somatostatin 28, 0.3 μM forskolin; cAMP HTRF; read-out: Inhibition rate against SSTR5 at 1 μM
T1 construct: expressed in transfected cells
T1 sequence (P35346 whole entry): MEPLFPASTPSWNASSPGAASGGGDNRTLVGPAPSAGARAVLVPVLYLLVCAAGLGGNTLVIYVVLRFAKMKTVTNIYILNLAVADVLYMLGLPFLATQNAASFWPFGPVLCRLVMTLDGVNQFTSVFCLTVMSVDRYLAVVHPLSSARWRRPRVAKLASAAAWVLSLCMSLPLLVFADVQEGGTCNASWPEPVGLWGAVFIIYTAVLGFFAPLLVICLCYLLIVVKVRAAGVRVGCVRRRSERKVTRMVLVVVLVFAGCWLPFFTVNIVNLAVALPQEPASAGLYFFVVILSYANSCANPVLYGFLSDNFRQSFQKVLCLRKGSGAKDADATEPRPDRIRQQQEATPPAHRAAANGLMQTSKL
Method: Evaluation of Human SSTR5 Antagonist Activity Using Intracellular cAMP Concentration as Index
The intracellular cAMP concentration was measured using HTRF cAMP dynamic 2 kit (Cisbio Bioassays). Each test compound diluted with an assay buffer (HBSS (Invitrogen Corp.) containing 5 mM HEPES (pH 7.5) (Invitrogen Corp.), 0.1% fatty-acid free BSA (Sigma-Aldrich Corp.), and 500 μM IBMX (Wako Pure Chemical Industries, Ltd.)) was added at a concentration of 2 μL/well to a 384-well white plate (Greiner Bio-One Co., Ltd.) to give the final concentration of 1 μM. A frozen stock of CHO (dhfr-) cells stably expressing the human SSTR5 gene (Accession No. NM_001053) was thawed in a thermostat bath of 37° C. and suspended in a subculture medium (MEM alpha (Wako Pure Chemical Industries, Ltd.), 10% dialyzed serum (Gemini Bio-Products), and 50 μg/mL gentamicin (Invitrogen Corp.). After centrifugation of the cell suspension, the cells were resuspended in an assay buffer and added at a concentration of 2 μL/well (about 4,000 cells/well) to the plate. The compound and the cells were incubated for 15 minutes, and then, an assay buffer containing 0.1 nM (final concentration) somatostatin 28 (Toray Research Center) and 0.3 μM (final concentration) forskolin (Wako Pure Chemical Industries, Ltd.) was added thereto at a concentration of 2 μL/well, followed by incubation at room temperature for 30 minutes. cAMP-d2 and anti-cAMP-cryptate were each added thereto at a concentration of 3 μL/well. The plate was left standing at room temperature for 60 minutes. Then, the fluorescence resonance energy transfer (FRET) intensity was measured using Multi-label reader Envision (PerkinElmer). The FRET intensity of the wells supplemented with the test compound group was converted to a cAMP concentration using a calibration curve prepared from the FRET intensity of a well group containing an assay buffer supplemented with an arbitrary concentration of cAMP. The inhibitory activity of each compound was calculated according to the following expression: Inhibitory activity (%)=(C−B)/(A−B)×100 A: cAMP concentration calculated from the wells supplemented with 0.3 μM forskolin B: cAMP concentration calculated from the wells supplemented with 0.3 μM forskolin and 0.1 nM somatostatin 28 C: cAMP concentration calculated from the wells supplemented with 0.3 μM forskolin, 0.1 nM somatostatin 28, and 1 μM test compound

[4] = test system: high fat diet-fed male C57BL6J mice; assay: Glucose tolerance test in mice (oral glucose tolerance test); type: in vivo; settings: 1 mg/kg oral, n=6
Method: Glucose Tolerance Test in Mice
Oral glucose tolerance test was performed in high fat diet-fed male C57BL6J mice (Clea Japan Inc.). 8 weeks old mice were fasted overnight and divided into separate groups (n=6) based on plasma glucose levels and body weight. Vehicle (0.5% (w/v) methylcellulose) or the compound of Example 72 (1 mg/kg) (suspended in vehicle) were orally given to animals and glucose was loaded (5 g/kg) 1 h after drug administration. Blood was collected from tail vein and blood glucose levels (mg/dL) were measured by ACCU-CHEK (Roche Inc.) at time 0 (just before glucose load), 10, 30, 60 and 120 min after glucose load.

CCCc1nc2c(cc1C(=O)O)C(=O)N(C1CCN(Cc3cc(C4CC4)c(-c4ccc(F)cc4F)cc3OCC)CC1)CC2 [Example 35, 6-(1-((2-Cyclopropyl-5-ethoxy-2′,4′-difluorobiphenyl-4-yl)methyl)piperidin-4-yl)-5-oxo-2-propyl-5,6,7,8-tetrahydro-1,6-naphthyridine-3-carboxylic acid]
Average of delta GHb (%) [1]: 0.60%

CCCc1nc2c(cc1C(=O)O)C(=O)N(C1CCN(Cc3cc(C4CC4)c(-c4ccc(F)cc4)c(F)c3OCC)CC1)CC2 [Example 67, 6-(1-((6-Cyclopropyl-3-ethoxy-2,4′-difluorobiphenyl-4-yl)methyl)piperidin-4-yl)-5-oxo-2-propyl-5,6,7,8-tetrahydro-1,6-naphthyridine-3-carboxylic acid]
Average of delta GHb (%) [2]: 0.40%

Cc1nc2c(cc1C(=O)O)C(=O)N(C1CCN(Cc3cc(C4CC4)c(-c4ccc(F)cc4)cc3OC(C)C)CC1)CC2 [Example 7, 6-(1-((2-Cyclopropyl-4′-fluoro-5-isopropoxybiphenyl-4-yl)methyl)piperidin-4-yl)-2-methyl-5-oxo-5,6,7,8-tetrahydro-1,6-naphthyridine-3-carboxylic acid]
inhibition at 1 µM [3]: 88%

CCOc1cc(-c2ccc(F)cc2)c(C2CC2)cc1CN1CCC(N2CCc3nc(C(C)C)c(C(=O)O)cc3C2=O)CC1 [Example 49, 6-(1-((2-Cyclopropyl-5-ethoxy-4′-fluorobiphenyl-4-yl)methyl)piperidin-4-yl)-2-isopropyl-5-oxo-5,6,7,8-tetrahydro-1,6-naphthyridine-3-carboxylic acid]
inhibition at 1 µM [3]: 91%

CCc1nc2c(cc1C(=O)O)C(=O)N(C1CCN(Cc3cc(C4CC4)c(-c4ccc(F)cc4)c(F)c3OC(C)C)CC1)CC2 [Example 72, 6-(1-((6-Cyclopropyl-2,4′-difluoro-3-isopropoxybiphenyl-4-yl)methyl)piperidin-4-yl)-2-ethyl-5-oxo-5,6,7,8-tetrahydro-1,6-naphthyridine-3-carboxylic acid]
inhibition at 1 µM [3]: 97% | blood glucose levels, 10 min ([4]; 10 min after glucose load (5 g/kg)): 283 mg/dL | blood glucose levels, 30 min ([4]; 30 min after glucose load (5 g/kg)): 269 mg/dL | blood glucose levels, 60 min ([4]; 60 min after glucose load (5 g/kg)): 267 mg/dL | blood glucose levels, 120 min ([4]; 120 min after glucose load (5 g/kg)): 140 mg/dL | blood glucose levels, 0 min ([4]; time 0 (just before glucose load, 1 h after drug administration)): 123 mg/dL | AUCpre-120 min ([4]; blood glucose AUC, glucose load 5 g/kg): 463 mg·h/dL

CCOc1cc(CN2CCC(N3CCc4nc(C)c(C(=O)O)cc4C3=O)CC2)cc(C2CC2)c1-c1ccc(F)c(F)c1 [Example 8, 6-(1-((2-Cyclopropyl-6-ethoxy-3′,4′-difluorobiphenyl-4-yl)methyl)piperidin-4-yl)-2-methyl-5-oxo-5,6,7,8-tetrahydro-1,6-naphthyridine-3-carboxylic acid]
inhibition at 1 µM [3]: 97%

CCOc1cc(CN2CCC(N3CCc4ncc(C(=O)O)cc4C3=O)C2)cc(OCC)c1-c1ccc(F)cc1 (centres unmarked) [Example 34, 6-(1-((2,6-Diethoxy-4′-fluorobiphenyl-4-yl)methyl)pyrrolidin-3-yl)-5-oxo-5,6,7,8-tetrahydro-1,6-naphthyridine-3-carboxylic acid]
inhibition at 1 µM [3]: 102%

CCCc1nc2c(cc1C(=O)O)C(=O)N(C1CCN(Cc3cc(C4CC4)c(-c4ccc(F)cc4F)c(F)c3OC)CC1)CC2 [Example 65, 6-(1-((6-Cyclopropyl-2,2′,4′-trifluoro-3-methoxybiphenyl-4-yl)methyl)piperidin-4-yl)-5-oxo-2-propyl-5,6,7,8-tetrahydro-1,6-naphthyridine-3-carboxylic acid]
inhibition at 1 µM [3]: 86%
